How the values were obtained:
[1] = system: CD-1 mice; assay: Serum triglyceride levels after chronic rapamycin treatment; assay type: in vivo; conditions: two-week rapamycin treatment 8 mg/kg IP daily; males and females; n = 4/group
[2] = system: mice; conditions: cited from earlier work
Source text: We observed a decrease in body weight only in males.

[3] = system: CD-1 mice; assay: Body weight and fasting blood glucose after chronic rapamycin treatment; assay type: in vivo
Description: (§1) The vehicle was prepared by creating a 1.2% DMSO solution in 5% Tween 80, 5% PEG 400.
(§2) The blood glucose was measured via the tail vein (AlphaTrak2, Abbott Laboratories, Chicago, IL, USA). […] The radioactivity circulated for times between 1–10 min, after which the carotid artery was cut to collect blood. The mice were immediately decapitated and the whole brain was removed and weighed. The blood was centrifuged at 5400 g for 10 min and the amount of radioactivity in the serum (50 µL) and the whole brain was counted in a gamma counter (Wizard2, PerkinElmer, Waltham, MA, USA). Two separate cohorts of mice were combined in the final analyses. […] Naïve male mice were anesthetized as described.

[4] = system: mice; conditions: cited from earlier work; remark: listed apart in the source
Source text: (§3) Triglycerides were one mechanism we hypothesized rapamycin could impact insulin BBB transport. […] A study in humans reported an increase in the serum triglyceride levels by approximately 47% follow ...

[5] = system: humans; conditions: 10 mg/day dose for 42 days as tolerated, patients with initial hyperlipidemic response; cited from earlier work
Source text: as §3

[6] = system: aorta; assay: Western immunoblotting of insulin signaling proteins in the aorta; assay type: in vivo, mice; conditions: 2 weeks rapamycin 8 mg/kg
Description: (§4) Following a 6 h fast, blood glucose was taken. The mice were anesthetized as described above, the thoracic cavity was opened, and blood was collected from the descending aorta. […] The brain vasculature was washed out by perfusing 20 mL of ice cold LR into the left ventricle of the heart. The brain was removed and split into the right and left hemispheres. The aorta was also removed. The blood was centrifuged at 5400 g for 10 min and the serum was collected. All the tissues were snap frozen in liquid nitrogen and stored at −80 °C until further processing.
The right hemisphere was crushed with a mortar and pestle in liquid nitrogen and approximately 100 mg of tissue was homogenized in radioimmunoprecipitation assay (RIPA) buffer (150 mM NaCl, 0.5% deoxycholic acid, 0.1% sodium dodecyl sulfate (SDS), 20 mM Tris HCl, and 2 mM ethylenediaminetetraacetic acid (EDTA)) plus freshly added 1/100 dilutions of a protease inhibitor cocktail (Sigma-Aldrich), 1mM sodium orthovanadate, and a phosphatase inhibitor (1 tablet PhosSTOP per 10 mL buffer) (Roche, Basel, Switzerland). The aortas were homogenized in the same lysis buffer. The samples were sonicated at 40% amplitude prior to centrifugation at 12,000× g for 10 min at 4 °C. The supernatants were collected and frozen at −80 °C. The protein was measured using the Pierce BCA Protein Assay Kit (Thermo Fisher Scientific, Rockford, IL, USA). […]

[7] = system: CD-1 mice; assay: Intravenous injection study with multiple-time regression analysis after an acute rapamycin i.v. injection; conditions: male CD-1 mice
Description: as §2
(§5) The exposure time is calculated by the formula:(1) Exposure time=∫0tCptdt/Cpt where Cp(t) is the level of radioactivity (cpm) in the serum at time (t). The exposure time corrects for the clearance of peptide from the blood. […] The slope of the linearity measures the Ki and is reported with its standard error term. The y-intercept of the linearity measures the Vi, the initial volume of distribution in brain at t = 0 [11].

[8] = system: CD-1 mice; assay: Transcardiac brain perfusion (absence of serum factors) after chronic rapamycin treatment; conditions: rapamycin 8 mg/kg IP daily for 2 weeks
Description: as §1
Perfusate was collected throughout the study to determine the average cpm/µL of perfusate. After perfusion, the whole brain was weighed and the amount of radioactivity was counted in a gamma counter (Wizard2, PerkinElmer). The brain/perfusate ratios were calculated by dividing the cpm in a gram of brain by the cpm in a µL of perfusate to yield the units of µL/g.
as §5

[9] = following an 8 mg/kg body weight IP injection; cited from earlier work
[10] = system: CD-1 mice; assay: Intravenous injection study with multiple-time regression analysis after chronic rapamycin treatment; conditions: for Vi (125I-insulin vascular binding) / Ki (125I-insulin BBB transport): rapamycin 8 mg/kg IP daily for 2 weeks, i.v. tracer
Description: as §1, §2, §5

[11] = system: CD-1 mice; assay: Measurement of hormone levels in serum and brain lysate (Bio-Plex Pro Mouse Diabetes Assay); assay type: in vivo; conditions: 2 weeks rapamycin 8 mg/kg
Description: as §4
The right hemisphere was crushed with a mortar and pestle in liquid nitrogen and approximately 100 mg of tissue was homogenized in radioimmunoprecipitation assay (RIPA) buffer (150 mM NaCl, 0.5% deoxycholic acid, 0.1% sodium dodecyl sulfate (SDS), 20 mM Tris HCl, and 2 mM ethylenediaminetetraacetic acid (EDTA)) plus freshly added 1/100 dilutions of a protease inhibitor cocktail (Sigma-Aldrich), 1mM sodium orthovanadate, and a phosphatase inhibitor (1 tablet PhosSTOP per 10 mL buffer) (Roche, Basel, Switzerland). The aortas were homogenized in the same lysis buffer. The samples were sonicated at 40% amplitude prior to centrifugation at 12,000× g for 10 min at 4 °C. The supernatants were collected and frozen at −80 °C. The protein was measured using the Pierce BCA Protein Assay Kit (Thermo Fisher Scientific, Rockford, IL, USA).
A panel of 8 metabolic hormones was measured in the brain lysate and serum using a Bio-Plex Pro Mouse Diabetes Assay (Bio-Rad Laboratories, Hercules, CA, USA): ghrelin, glucose-dependent insulinotropic peptide (GIP), glucagon-like peptide-1 (GLP-1), glucagon, insulin, leptin, plasminogen activator inhibitor-1 (PAI-1), and resistin. The serum was diluted 1:4 with the kit diluent. Twenty µg/µL protein lysate samples were measured from the right hemisphere. The samples were measured according to the manufacturer and read on a Bio-Plex 200 (Bio-Rad Laboratories).

[12] = system: CD-1 mice; assay: Measurement of serum cytokines (Bio-Plex Pro Mouse Cytokine Assay); assay type: in vivo; conditions: 2 weeks rapamycin 8 mg/kg
Description: as §4
A panel of 23 cytokines was measured in the brain protein lysate and serum using a mouse Bio-Plex Pro Mouse Cytokine Assay (Bio-Rad Laboratories): interleukin (IL)-1α; IL-1β; IL-2; IL-3; IL-4; IL-5; IL-6; IL-9; IL-10; IL-12(p40); IL-12(p70); IL-13; IL-17; eotaxin (CCL11); granulocyte colony-stimulating factor (G-CSF); granulocyte-macrophage colony-stimulating factor (GM-CSF); interferon (IFN)-γ; keratinocyte chemoattractant (KC) (CXCL1); monocyte chemoattractant protein (MCP)-1 (CCL2); macrophage inflammatory protein (MIP)-1α (CCL3); MIP-1β (CCL4); and regulated on activation, normal T cell expressed and secreted (RANTES; CCL5) and tumor necrosis factor (TNF)-α). The serum samples were diluted 1:4 with the kit sample diluent. The samples were measured according to the manufacturer and read on a Bio-Plex 200 (Bio-Rad Laboratories).

[13] = female CD-1 mice, transcardiac perfusion

- Ki (unidirectional influx of 125I-insulin from blood to brain) ([7]; rapamycin 400 ng i.v. 10 min before 125I-insulin i.v., brain/serum ratio corrected with 99mTc-albumin, 1-10 min, slope ± standard error, gamma counter): 0.541 ± 0.13 µL/g/min
- Vi (125I-insulin vascular binding) ([7]; rapamycin 400 ng i.v. 10 min before 125I-insulin i.v., y-intercept of regression, p = 0.02 vs vehicle): 10.1 ± 1.3 µL/g
- rate of insulin BBB transport (Ki) ([7]; rapamycin 400 ng i.v. 10 min before tracer, p = 0.63 vs vehicle): 0.54 ± 0.1 µL/g/min
- Ki (125I-insulin BBB transport, absence of serum factors) [8, 13]: 1.89 ± 0.63 µL/g/min
- Vi (125I-insulin vascular binding, absence of serum factors) [8, 13]: 8.3 ± 2.1 µL/g
- Vi (125I-insulin vascular binding, absence of serum factors) ([8]; male CD-1 mice, transcardiac perfusion): 8.0 ± 1.7 µL/g
- Ki (125I-insulin BBB transport, absence of serum factors) ([8]; male CD-1 mice, transcardiac perfusion 2 mL/min, 1-5 min, brain/perfusate ratio vs clock time): 1.35 ± 0.53 µL/g/min
- Vi (125I-insulin vascular binding) ([10]; female CD-1 mice): 9.9 ± 2.9 µL/g
- Ki (125I-insulin BBB transport) ([10]; female CD-1 mice, linear regression not significant (ns)): 0.73 ± 0.34 µL/g/min
- Vi (125I-insulin vascular binding) ([10]; male CD-1 mice): 4.0 ± 1.0 µL/g
- Ki (125I-insulin BBB transport) ([10]; male CD-1 mice, slope ± standard error, p = 0.055 vs vehicle): 1.32 ± 0.19 µL/g/min
SMILES: CO[C@H]1C[C@@H]2CC[C@@H](C)[C@@](O)(O2)C(=O)C(=O)N2CCCC[C@H]2C(=O)O[C@H]([C@H](C)C[C@@H]2CC[C@@H](O)[C@H](OC)C2)CC(=O)[C@H](C)/C=C(\C)[C@@H](O)[C@@H](OC)C(=O)[C@H](C)C[C@H](C)/C=C/C=C/C=C/1C [Rapamycin]
- serum triglyceride levels [1]: did not elicit a significant change
- glucose tolerance ([2]; 2 weeks of daily injections of a fourfold lower concentration than the current study): impair glucose tolerance
- serum glucose levels ([2]; five weeks of daily rapamycin treatment, mice fasted overnight): increase
- body weight gain ([3]; 2 weeks of rapamycin 8 mg/kg IP daily, males n = 24-34, females n = 18-19): impacted body weight gain in males only
- fasting blood glucose levels ([3]; females, 2 weeks rapamycin 8 mg/kg IP daily, 6 h fast, p = 0.19): did not have the same increase
- mean fasting blood glucose levels ([3]; males, 2 weeks rapamycin 8 mg/kg IP daily, 6 h fast, p < 0.001 vs vehicle (157 mg/dL), n = 12-16/group): 226 mg/dL
- increase in serum triglyceride levels ([4]; growth hormone receptor knockout male mice, 4 mg/kg every other day for 20 weeks): approximately 12%
- serum triglyceride levels ([4]; mice fed rapamycin orally): no differences were observed
- increase in serum triglyceride levels [5]: approximately 47%
- MAPK protein expression relative to β-actin ([6]; males and females, treatment p = 0.006, n = 3-4/group): significant increase
- phosphorylated Akt (pAkt Ser473) relative to total Akt ([6]; only in males, interaction p = 0.0918, n = 3-4/group): trend in decreased levels
- blood rapamycin levels [9]: 100 ng/mL
- vascular marker 99mTc-albumin (BBB integrity) ([10]; two-week rapamycin treatment, data not shown): no effect
- serum GLP-1 levels ([11]; 6 h fast, treatment p = 0.015, n = 4/group): significantly increased
- serum resistin levels ([11]; males and females, 6 h fast, p < 0.0001, n = 4/group): significantly decreased
- ghrelin, GIP, glucagon, or leptin levels ([11]; serum, 6 h fast, n = 4/group): no effect
- brain insulin levels ([11]; whole brain lysate, treatment p = 0.034, post hoc p = 0.014, n = 3-4/group): significant differences in females only
- serum IL-2 levels ([12]; 6 h fast, p = 0.009, n = 3/group): increased
- serum IL-17 levels ([12]; 6 h fast, p = 0.023, n = 3/group): increased
- serum IL-3 levels ([12]; 6 h fast, treatment p = 0.004, post hoc in males p = 0.007, n = 3/group): increased significantly
- serum TNF-α, RANTES, and GM-CSF levels ([12]; not statistically significant (0.05 < p < 0.07)): trend towards an increase
